Here are results for 18 compounds from ChEMBL document CHEMBL1127194, “1,3- And 1,5-bisbiphenylyl substituted 3-metcaptotriazoles as angiotensin II receptor antagonists” (Bioorg Med Chem Lett, 1993).

What is called pA2 is the negative logarithm of the molar antagonist concentration that doubles the agonist concentration needed for the same response. Read a low pA2 as lower antagonist potency.

The structures appear in SMILES notation.

One assay addresses Oryctolagus cuniculus angiotensin II receptor. Put plainly: Inhibition of angiotensin II induced contractions in rabbit aortic ring preparation.
In turn, `O=C(O)c1ccccc1-c1ccc(CSc2nc(Cc3ccccc3)n(Cc3ccc(-c4ccccc4C(=O)O)cc3)n2)cc1` came in with a pA2 of 7.
The same measure, in the same setting: the value for `CCCCCCCCc1nc(S(=O)(=O)Cc2ccc(-c3ccccc3C(=O)O)cc2)nn1Cc1ccc(-c2ccccc2C(=O)O)cc1` was 6.1; that for `CCCCCCCc1nc(S(=O)(=O)Cc2ccc(-c3ccccc3C(=O)O)cc2)nn1Cc1ccc(-c2ccccc2C(=O)O)cc1` was 6.5.
Same read-out and setting: the value for `CCCCCCCc1nc(SCc2ccc(-c3ccccc3C(=O)O)cc2)nn1Cc1ccc(-c2ccccc2C(=O)O)cc1` was 6.7; that for `CCCCCc1nc(SCc2ccc(-c3ccccc3C(=O)O)cc2)nn1Cc1ccc(-c2ccccc2C#N)cc1` was below 5.
Compound `CCCCc1nc(SCc2ccc(-c3ccccc3C(=O)O)cc2)n(Cc2ccc(-c3ccccc3C(=O)O)cc2)n1` gave a pA2 of 7.
`CCCCCCc1nc(S(=O)(=O)Cc2ccc(-c3ccccc3C(=O)O)cc2)nn1Cc1ccc(-c2ccccc2C(=O)O)cc1` showed a pA2 of 8.1.
The same measure, in the same setting: for `CC(C)Cc1nc(SCc2ccc(-c3ccccc3C(=O)O)cc2)nn1Cc1ccc(-c2ccccc2C(=O)O)cc1` the value was 7.5; for `CCCCc1nc(SCc2ccc(-c3ccccc3C(=O)OC)cc2)nn1Cc1ccc(-c2ccccc2C(=O)OC)cc1`, below 5; for `CCCCc1nc(SCc2ccc(-c3ccccc3C(=O)O)cc2)nn1Cc1ccc(-c2ccccc2C(=O)O)cc1`, 8.3.
The same measure, in the same setting: the value for `CCCCCc1nc(SCc2ccc(-c3ccccc3C(=O)OC)cc2)nn1Cc1ccc(-c2ccccc2C(=O)OC)cc1` was below 5; that for `O=C(O)c1ccccc1-c1ccc(CSc2nc(Cc3ccccc3)nn2Cc2ccc(-c3ccccc3C(=O)O)cc2)cc1` was 6.1; that for `CCCCCCCc1nc(SCc2ccc(-c3ccccc3C(=O)O)cc2)n(Cc2ccc(-c3ccccc3C(=O)O)cc2)n1` was 5.9.
On the same count and under the same terms, for `CCCCCc1nc(SCc2ccc(-c3ccccc3C(=O)O)cc2)nn1Cc1ccc(-c2ccccc2C(=O)O)cc1` the value was 8.4; for `CCCCCc1nc(SCc2ccc(-c3ccccc3C#N)cc2)nn1Cc1ccc(-c2ccccc2C(=O)O)cc1`, 6.3; for `CCCCCCc1nc(SCc2ccc(-c3ccccc3C(=O)O)cc2)nn1Cc1ccc(-c2ccccc2C(=O)O)cc1`, 8.
The compound `CCCCCc1nc(SCc2ccc(-c3ccccc3C(=O)O)cc2)n(Cc2ccc(-c3ccccc3C(=O)O)cc2)n1` displayed a pA2 of 7.2.

Another assay deals with Rattus norvegicus. Kind of assay: Tested for the decrease in blood pressure at a dose of ~10 mg/kg by intravenous administration for ~24h. It counts as functional.
As for `CCCCc1nc(Cl)c(CO)n1Cc1ccc(-c2ccccc2-c2nnn[nH]2)cc1` [LOSARTAN], the Blood pressure was determined as 37 mmHg.

Another assay relates to Rattus norvegicus. Put plainly: Tested for the decrease in blood pressure at a dose of ~5 mg/kg by intravenous administration for ~24h. It counts as functional.
For the compound `CCCCCc1nc(SCc2ccc(-c3ccccc3C(=O)O)cc2)nn1Cc1ccc(-c2ccccc2C(=O)O)cc1`, the Blood pressure came to 24 mmHg.
